The values below come from US20060069123A1, “Substituted dipiperidine CCR2 antagonists” (priority 2004, published 2006).

The assay has as its target T1, CCR2 (Homo sapiens, UniProt P41597).
T1 sequence (P41597 1-360 isoform P41597-2): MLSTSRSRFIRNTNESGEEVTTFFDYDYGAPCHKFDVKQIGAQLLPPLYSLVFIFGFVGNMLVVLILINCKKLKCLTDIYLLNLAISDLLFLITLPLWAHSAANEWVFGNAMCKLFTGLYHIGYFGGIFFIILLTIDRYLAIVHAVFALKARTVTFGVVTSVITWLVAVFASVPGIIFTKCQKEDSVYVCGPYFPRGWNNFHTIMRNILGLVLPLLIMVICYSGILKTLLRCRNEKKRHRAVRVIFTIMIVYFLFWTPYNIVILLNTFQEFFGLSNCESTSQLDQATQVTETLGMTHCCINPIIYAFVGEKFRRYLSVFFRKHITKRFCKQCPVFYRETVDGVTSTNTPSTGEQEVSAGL
The settings on record: for inhibition at 25 µM: read-out: Inhibition of MCP-1 Binding, percent inhibition.

For the molecule `COc1ccc(NC(=O)N2CCC(C(C(=O)O)N3CCC(c4c[nH]c5ccccc45)CC3)CC2)cc1OC` (stereo not shown) [Cpd 66, [1-(3,4-dimethoxy-phenylcarbamoyl)-piperidin-4-yl]-[4-(1H-indol-3-yl)-piperidin-1-yl]-acetic acid], half-maximal inhibition (IC50) was put at 17.7 µM. As to `O=C(O)C(C1CCN(C(=S)Nc2cccc(Br)c2)CC1)N1CCC(c2c[nH]c3ccccc23)CC1` (stereo not shown) [Cpd 56, [1-(3-bromo-phenylthiocarbamoyl)-piperidin-4-yl]-[4-(1H-indol-3-yl)-piperidin-1-yl]-acetic acid], half-maximal inhibition (IC50) was put at 0.06 µM. In turn, `COC(=O)NCC(C1CCN(C(=O)/C=C/c2cc(F)cc(F)c2)CC1)N1CCC(c2c[nH]c3ccccc23)CC1` (stereo not shown) [Cpd 239] came in with a 50% inhibitory concentration (IC50) of 3 µM. Same read-out and setting: the figure for `CS(=O)(=O)Nc1ccc(C2CCN(C(CO)C3CCN(C(=O)/C=C/c4ccc(Cl)c(Cl)c4)CC3)CC2)cc1` (stereo not shown) [Cpd 210, N-{4-[1-(1-{1-[(2E)-3-(3,4-dichloro-phenyl)-acryloyl]-piperidin-4-yl}-2-hydroxy-ethyl)-piperidin-4-yl]-phenyl}-methanesulfonamide] is 5 µM. Still for that read-out and setting: the same measure for `O=C(CC1CCN(C(C(=O)O)C2CCN(C(=O)/C=C/c3cc(F)cc(F)c3)CC2)CC1)NCc1ccccc1` (stereo not shown) [Cpd 148, [4-(benzylcarbamoyl-methyl)-piperidin-1-yl]-{1-[(2E)-3-(3,5-difluoro-phenyl)-acryloyl]-piperidin-4-yl}-acetic acid]: 8.8 µM. The same measure, in the same setting: the figure for `O=C(O)C(C1CCN(C(=O)/C=C/c2cc(F)c(F)c(F)c2)CC1)N1CCC(c2cc[nH]c2)CC1` (stereo not shown) [Cpd 150, [4-(1H-pyrrol-3-yl)-piperidin-1-yl]-{1-[(2E)-3-(3,4,5-trifluoro-phenyl)-acryloyl]-piperidin-4-yl}-acetic acid] is 1.6 µM; for `N=C(NC(=O)c1cccc(C(F)(F)F)c1)N1CCC(C(C(=O)O)N2CCC(c3c[nH]c4ccccc34)CC2)CC1` (stereo not shown) [Cpd 73, {1-[imino-(3-trifluoromethyl-benzoylamino)-methyl]-piperidin-4-yl}-[4-(1H-indol-3-yl)-piperidin-1-yl]-acetic acid] it is 0.15 µM; for `COc1ccc(NC(=O)N2CCC(C(C(=O)O)N3CCC(c4c[nH]c5ccccc45)CC3)CC2)cc1Cl` (stereo not shown) [Cpd 67, [1-(3-chloro-4-methoxy-phenylcarbamoyl)-piperidin-4-yl]-[4-(1H-indol-3-yl)-piperidin-1-yl]-acetic acid] it is 0.845 µM. The molecule `CN(C)CC(=O)NCC(C1CCN(C(=O)/C=C/c2cc(F)cc(F)c2)CC1)N1CCC(c2c[nH]c3ccccc23)CC1` (stereo not shown) [Cpd 252] displayed a half-maximal inhibitory concentration (IC50) of 5.8 µM. For `CS(=O)(=O)Nc1ccc(C2CCN(C(C(=O)O)C3CCN(C(=O)/C=C/c4cc(F)c(F)c(F)c4)CC3)CC2)cc1` (stereo not shown) [Cpd 206, [4-(4-methanesulfonylamino-phenyl)-piperidin-1-yl]-{1-[(2E)-3-(3,4,5-trifluoro-phenyl)-acryloyl]-piperidin-4-yl}-acetic acid], inhibition was half-maximal at 2 µM (IC50). `O=C(O)C(C1CCN(C(=O)/C=C/c2cc(F)c(F)c(F)c2)CC1)N1CCC(Cc2c[nH]c3ccccc23)CC1` (stereo not shown) [Cpd 12, [4-(1H-indol-3-ylmethyl)-piperidin-1-yl]-{1-[(2E)-3-(3,4,5-trifluoro-phenyl)-acryloyl]-piperidin-4-yl}-acetic acid] yielded an IC50 of 0.41 µM. Still for that read-out and setting: the same measure for `O=C(O)C(C1CCN(C(=O)Nc2cc(Cl)c(Cl)cc2Cl)CC1)N1CCC(c2c[nH]c3ccccc23)CC1` (stereo not shown) [Cpd 126, [4-(1H-indol-3-yl)-piperidin-1-yl]-[1-(2,4,5-trichloro-phenylcarbamoyl)-piperidin-4-yl]-acetic acid]: 2.1 µM.

`O=CNCC(C1CCN(C(=O)/C=C/c2cc(F)cc(F)c2)CC1)N1CCC(c2c[nH]c3ccccc23)CC1` (stereo not shown) [Cpd 221] gave an IC50 of 0.41 µM.

The molecule `O=C(O)C(C1CCN(C(=O)/C=C/c2cc(F)c(F)c(F)c2)CC1)N1CCC(n2ccc3ccccc32)CC1` (stereo not shown) [Cpd 10, (4-indol-1-yl-piperidin-1-yl)-{1-[(2E)-3-(3,4,5-trifluoro-phenyl)-acryloyl]-piperidin-4-yl}-acetic acid] yielded an IC50 of 8.6 µM. Still for that read-out and setting: the figure for `COc1ccc(/C=C/C(=O)N2CCC(C(C(=O)O)N3CCC(c4c[nH]c5ccccc45)CC3)CC2)cc1OC` (stereo not shown) [Cpd 63, {1-[(2E)-3-(3,4-dimethoxy-phenyl)-acryloyl]-piperidin-4-yl}-[4-(1H-indol-3-yl)-piperidin-1-yl]-acetic acid] is 1.61 µM; for `O=C(O)C(C1CCN(C(=S)Nc2ccccc2)CC1)N1CCC(c2c[nH]c3ccccc23)CC1` (stereo not shown) [Cpd 43, [4-(1H-indol-3-yl)-piperidin-1-yl]-(1-phenylthiocarbamoyl-piperidin-4-yl)-acetic acid] it is 1.1 µM. Turning to `O=CNCC(C1CCN(C(=O)/C=C/c2cccc(C(F)(F)F)c2)CC1)N1CCC(c2c[nH]c3ccccc23)CC1` (stereo not shown) [Cpd 224], the inhibition at 25 µM is 54%. For `O=C(O)C(C1CCN(C(=O)/C=C/c2cc(F)c(F)c(F)c2)CC1)N1CCC(c2ccc(Cl)cc2)CC1` (stereo not shown) [Cpd 4, [4-(4-chloro-phenyl)-piperidin-1-yl]-{1-[(2E)-3-(3,4,5-trifluoro-phenyl)-acryloyl]-piperidin-4-yl}-acetic acid], it took 0.37 µM to reach half-maximal inhibition (IC50). On the same count and under the same terms, the same measure for `O=C(O)C(C1CCN(C(=S)Nc2ccc(F)cc2F)CC1)N1CCC(c2c[nH]c3ccccc23)CC1` (stereo not shown) [Cpd 44, [1-(2,4-difluoro-phenylthiocarbamoyl)-piperidin-4-yl]-[4-(1H-indol-3-yl)-piperidin-1-yl]-acetic acid]: 2.7 µM; for `N=C(NC(=O)c1cc(F)c(F)c(F)c1)N1CCC(C(C(=O)O)N2CCC(c3c[nH]c4ccccc34)CC2)CC1` (stereo not shown) [Cpd 52, {1-[imino-(3,4,5-trifluoro-benzoylamino)-methyl]-piperidin-4-yl}-[4-(1H-indol-3-yl)-piperidin-1-yl]-acetic acid]: 0.03 µM. The same measure, in the same setting: the same measure for `O=CNCC(C1CCN(C(=O)/C=C/c2ccsc2)CC1)N1CCC(c2c[nH]c3ccccc23)CC1` (stereo not shown) [Cpd 225]: 1.3 µM; for `O=C(/C=C/c1ccc(Cl)c(Cl)c1)N1CCC(C(CO)N2CCC(c3nccs3)CC2)CC1` (stereo not shown) [Cpd 196]: 5.7 µM; for `COc1cccc(C2CCN(C(CO)C3CCN(C(=O)/C=C/c4cc(F)cc(F)c4)CC3)CC2)c1` (stereo not shown) [Cpd 197]: 1.2 µM. On the same count and under the same terms, the figure for `Cc1cccc(/C=C/C(=O)N2CCC(C(CNC=O)N3CCC(c4c[nH]c5ccccc45)CC3)CC2)c1` (stereo not shown) [Cpd 223] is 4.1 µM; for `O=C(O)C(C1CCN(C(=O)Nc2ccc(F)c(F)c2F)CC1)N1CCC(c2c[nH]c3ccccc23)CC1` (stereo not shown) [Cpd 125, [4-(1H-indol-3-yl)-piperidin-1-yl]-[1-(2,3,4-trifluoro-phenylcarbamoyl)-piperidin-4-yl]-acetic acid] it is 1.7 µM. Take `O=C(C1CC1c1ccc(Cl)c(Cl)c1)N1CCC(C(CO)N2CCC(c3c[nH]c4ccccc34)CC2)CC1` (stereo not shown) [Cpd 212, [2-(3,4-dichloro-phenyl)-cyclopropyl]-(4-{2-hydroxy-1-[4-(1H-indol-3-yl)-piperidin-1-yl]-ethyl}-piperidin-1-yl)-methanone]: the inhibition at 25 µM is 58%. `O=C(O)C(C1CCN(C(=O)/C=C/c2cc(F)cc(F)c2)CC1)N1CCC(Cc2c[nH]c3ccccc23)CC1` (stereo not shown) [Cpd 11, {1-[(2E)-3-(3,5-difluoro-phenyl)-acryloyl]-piperidin-4-yl}-[4-(1H-indol-3-ylmethyl)-piperidin-1-yl]-acetic acid] yielded a concentration for half-maximal inhibition (IC50) of 2.17 µM. Still for that read-out and setting: the same measure for `N=C(NC(=O)c1ccc(Cl)c(Cl)c1)N1CCC(C(C(=O)O)N2CCC(c3c[nH]c4ccccc34)CC2)CC1` (stereo not shown) [Cpd 50, {1-[(3,4-dichloro-benzoylamino)-imino-methyl]-piperidin-4-yl}-[4-(1H-indol-3-yl)-piperidin-1-yl]-acetic acid]: 0.03 µM; for `COc1ccc(C2CCN(C(C(=O)O)C3CCN(C(=O)/C=C/c4cc(F)c(F)c(F)c4)CC3)CC2)cc1` (stereo not shown) [Cpd 5, [4-(4-methoxy-phenyl)-piperidin-1-yl]-{1-[(2E)-3-(3,4,5-trifluoro-phenyl)-acryloyl]-piperidin-4-yl}-acetic acid]: 0.84 µM; for `N=C(NC(=O)c1cccc(F)c1)N1CCC(C(C(=O)O)N2CCC(c3c[nH]c4ccccc34)CC2)CC1` (stereo not shown) [Cpd 54, {1-[(3-fluoro-benzoylamino)-imino-methyl]-piperidin-4-yl}-[4-(1H-indol-3-yl)-piperidin-1-yl]-acetic acid]: 1.4 µM. On the same count and under the same terms, the figure for `O=C(O)C(C1CCN(C(=O)NCc2ccc(Cl)c(Cl)c2)CC1)N1CCC(c2c[nH]c3ccccc23)CC1` (stereo not shown) [Cpd 84, [1-(3,4-dichloro-benzylcarbamoyl)-piperidin-4-yl]-[4-(1H-indol-3-yl)-piperidin-1-yl]-acetic acid] is 2.9 µM; for `CN(C)CC(C1CCN(C(=O)/C=C/c2cc(F)cc(F)c2)CC1)N1CCC(c2c[nH]c3ccccc23)CC1` (stereo not shown) [Cpd 130, (2E)-3-(3,5-difluoro-phenyl)-1-(4-{2-dimethylamino-1-[4-(1H-indol-3-yl)-piperidin-1-yl]-ethyl}-piperidin-1-yl)-propenone] it is 8.55 µM. On the same count and under the same terms, the figure for `CCNC(=O)NCC(C1CCN(C(=O)/C=C/c2cccc(C(F)(F)F)c2)CC1)N1CCC(c2c[nH]c3ccccc23)CC1` (stereo not shown) [Cpd 232] is 4 µM; for `COC(=O)OCC(C1CCN(C(=O)/C=C/c2cc(F)cc(F)c2)CC1)N1CCC(c2ccc(Cl)cc2)CC1` (stereo not shown) [Cpd 250, carbonic acid 2-[4-(4-chloro-phenyl)-piperidin-1-yl]-2-{1-[(2E)-3-(3,5-difluoro-phenyl)-acryloyl]-piperidin-4-yl}-ethyl ester methyl ester] it is 2.9 µM.

For orientation: IC50 means the concentration that gives 50% inhibition. The low end stands for higher potency, the high end for lower potency. In general, inhibition refers to the relative decrease from the control value, in per cent.
